According to ChEMBL document CHEMBL1201862, “PubChem BioAssay data set” (2004):
Activity calls are given as the source filed them.

Experiments:
[1] = target: T1, Protein Tat (Human immunodeficiency virus type 1 group M subtype B (isolate HXB2)(HIV-1), UniProt P04608); type: functional;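 also: tat binding to TAR RNA read out by fluorescence polarization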
T1 sequence (P04608 whole entry): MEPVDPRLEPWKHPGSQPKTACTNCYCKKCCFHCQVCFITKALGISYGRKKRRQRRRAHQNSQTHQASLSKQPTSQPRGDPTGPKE

[2] = target: T2, Polyadenylate-binding protein 1 (Homo sapiens, UniProt P11940); assay: PABP1 MLLE–PAM2 interaction inhibitors, dose response, miRNA deadenylation inhibitor project, biochemical, fluorescence polarization, Cy5-PAM2 peptide, secondary (AID 602260); type: functional; conditions: read-out: IC50_Mean
T2 sequence (P11940 whole entry): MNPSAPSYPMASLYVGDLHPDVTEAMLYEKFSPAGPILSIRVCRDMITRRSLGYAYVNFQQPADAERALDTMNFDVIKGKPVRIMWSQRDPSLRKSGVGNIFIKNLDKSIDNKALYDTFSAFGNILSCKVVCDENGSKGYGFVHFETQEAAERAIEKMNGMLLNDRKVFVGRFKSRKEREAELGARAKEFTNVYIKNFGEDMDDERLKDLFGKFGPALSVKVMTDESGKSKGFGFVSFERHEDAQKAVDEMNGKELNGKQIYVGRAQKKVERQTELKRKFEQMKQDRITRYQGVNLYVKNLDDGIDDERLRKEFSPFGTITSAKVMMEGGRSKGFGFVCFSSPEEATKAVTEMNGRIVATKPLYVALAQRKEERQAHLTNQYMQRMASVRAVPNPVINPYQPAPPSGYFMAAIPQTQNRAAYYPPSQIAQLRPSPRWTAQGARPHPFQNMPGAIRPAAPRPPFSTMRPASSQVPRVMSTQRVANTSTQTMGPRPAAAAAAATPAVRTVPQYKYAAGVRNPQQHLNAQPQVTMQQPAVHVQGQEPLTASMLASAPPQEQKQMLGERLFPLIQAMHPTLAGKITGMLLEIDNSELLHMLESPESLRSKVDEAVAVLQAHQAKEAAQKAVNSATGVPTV

[3] = target: T2, Polyadenylate-binding protein 1; assay: PABP1 MLLE–PAM2 binding inhibitor potency, dose response, biochemical, fluorescence polarization, FITC-PAM2 peptide (AID 602259); type: functional; conditions: read-out: IC50_Mean
[4] = Concentration-dependent survival of SW480 colon cancer line, luminescence detection with CellTiter-Glo, half-maximal inhibitory concentration (AID 1117338); type: functional
[5] = RKO cell viability reduction, dose response, CellTiter-Glo luminescence (AID 1117322); type: functional
[6] = cytotoxicity toward HCT116 cells – cell-based, CellTiter-Glo luminescence, IC50, dose response (AID 1117332); type: functional; conditions: HCT-116
[7] = SNU-C1 cell viability reduction, dose response, CellTiter-Glo luminescence (AID 1117323); type: functional, cell-based
[8] = cytotoxicity toward Colo320 cells – cell-based, CellTiter-Glo luminescence, IC50, dose response (AID 1117334); type: functional; conditions: COLO 320
[9] = cytotoxicity toward HT-29 cells – cell-based, CellTiter-Glo luminescence, IC50, dose response (AID 1117330); type: functional
[10] = CellTiter-Glo luminescent dose response of DLD-1 viability loss (AID 1117352); type: functional
[11] = HCT116 cell viability decrease, GSK3B pretreatment – CellTiter-Glo, IC50, dose response (AID 1117339); type: functional; conditions: HCT-116
[12] = target: Albumin (Bos taurus, UniProt P02769); assay: Counterscreen for inhibitors of T-cell receptor (TCR)-CD3 interaction: Fluorescence-based biochemical high throughput dose response assay to identify inhibitors of T-cell receptor (TCR)-CD3 interaction using a TAMRA-labeled BSA probe.; type: functional
Sequence of Albumin (P02769 whole entry): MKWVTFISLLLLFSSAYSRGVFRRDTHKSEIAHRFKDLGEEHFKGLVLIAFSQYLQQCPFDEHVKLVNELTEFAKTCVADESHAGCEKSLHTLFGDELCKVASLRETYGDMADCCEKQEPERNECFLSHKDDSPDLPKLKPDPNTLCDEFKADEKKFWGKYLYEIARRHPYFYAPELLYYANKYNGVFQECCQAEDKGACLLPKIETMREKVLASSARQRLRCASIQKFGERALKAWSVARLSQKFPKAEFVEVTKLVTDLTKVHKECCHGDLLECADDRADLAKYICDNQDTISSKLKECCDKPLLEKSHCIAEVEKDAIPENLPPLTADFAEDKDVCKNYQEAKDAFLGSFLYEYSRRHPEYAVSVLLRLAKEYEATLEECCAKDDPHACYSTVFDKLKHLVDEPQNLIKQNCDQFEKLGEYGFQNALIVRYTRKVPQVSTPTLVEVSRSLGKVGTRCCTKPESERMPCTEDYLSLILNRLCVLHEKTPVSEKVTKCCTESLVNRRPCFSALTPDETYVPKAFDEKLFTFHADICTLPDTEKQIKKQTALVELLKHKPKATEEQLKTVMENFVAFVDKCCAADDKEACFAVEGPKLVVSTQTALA

[13] = target: Paired box protein Pax-8 (Homo sapiens, UniProt Q06710); assay: inhibitors of PAX8-driven TPO luciferase reporter, dose response, RMG-I cells, cherry-pick (AID 687027); type: functional, cell-based;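 also: luciferase reporter driven by Pax8 target thyroperoxidase promoter measured by SteadyGlo luminescence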
Sequence of Paired box protein Pax-8 (Q06710 whole entry): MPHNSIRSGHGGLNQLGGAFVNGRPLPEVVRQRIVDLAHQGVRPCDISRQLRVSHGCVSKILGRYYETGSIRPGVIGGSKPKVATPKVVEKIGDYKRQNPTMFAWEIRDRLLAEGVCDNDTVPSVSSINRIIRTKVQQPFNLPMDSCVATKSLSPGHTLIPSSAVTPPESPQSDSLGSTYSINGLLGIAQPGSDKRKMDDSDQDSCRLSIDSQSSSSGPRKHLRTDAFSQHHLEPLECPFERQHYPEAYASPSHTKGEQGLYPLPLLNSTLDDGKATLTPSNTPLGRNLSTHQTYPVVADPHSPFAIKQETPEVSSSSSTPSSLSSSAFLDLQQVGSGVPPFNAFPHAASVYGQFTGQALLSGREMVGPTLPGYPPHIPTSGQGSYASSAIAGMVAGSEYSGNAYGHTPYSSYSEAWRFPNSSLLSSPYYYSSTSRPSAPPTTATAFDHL

[14] = cytotoxicity in OVCAR8 ovarian cancer cells, dose response, PAX8 project, cell-based, plate reader, dry powder samples (AID 743197); type: functional; conditions: OVCAR-8
[15] = target: Large T antigen (Simian virus 40, UniProt P03070); type: functional, Betapolyomavirus macacae;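 also: Confirmatory-stage PubChem screen for compounds that inhibit SV40 T antigen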
Sequence of Large T antigen (P03070 whole entry): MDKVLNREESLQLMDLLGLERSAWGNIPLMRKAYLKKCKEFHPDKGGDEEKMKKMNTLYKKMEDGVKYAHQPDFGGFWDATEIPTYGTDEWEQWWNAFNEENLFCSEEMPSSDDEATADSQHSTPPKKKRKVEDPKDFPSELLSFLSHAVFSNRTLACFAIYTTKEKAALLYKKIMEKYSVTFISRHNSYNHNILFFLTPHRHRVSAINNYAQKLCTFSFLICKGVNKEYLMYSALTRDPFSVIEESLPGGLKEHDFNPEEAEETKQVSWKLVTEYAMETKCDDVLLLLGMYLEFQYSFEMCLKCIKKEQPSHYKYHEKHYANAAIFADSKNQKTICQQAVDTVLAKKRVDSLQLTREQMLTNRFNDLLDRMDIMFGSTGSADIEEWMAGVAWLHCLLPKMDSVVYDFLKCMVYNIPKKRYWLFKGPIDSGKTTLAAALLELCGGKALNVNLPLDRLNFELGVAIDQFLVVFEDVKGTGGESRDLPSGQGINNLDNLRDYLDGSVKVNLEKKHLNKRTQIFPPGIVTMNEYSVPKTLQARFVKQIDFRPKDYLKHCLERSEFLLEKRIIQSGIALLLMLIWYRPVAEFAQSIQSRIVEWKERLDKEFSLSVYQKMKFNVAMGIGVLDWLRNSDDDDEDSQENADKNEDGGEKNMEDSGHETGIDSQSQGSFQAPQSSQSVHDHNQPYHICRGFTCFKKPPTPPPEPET

[16] = target: Genome polyprotein (dengue virus type 2, UniProt P29990); assay: Dengue-2 NS5 methyltransferase inhibitors, primary screen, biochemical, confirmation dose response (AID 588689); type: functional
Sequence of Genome polyprotein (P29990 2492-3391 limits assumed): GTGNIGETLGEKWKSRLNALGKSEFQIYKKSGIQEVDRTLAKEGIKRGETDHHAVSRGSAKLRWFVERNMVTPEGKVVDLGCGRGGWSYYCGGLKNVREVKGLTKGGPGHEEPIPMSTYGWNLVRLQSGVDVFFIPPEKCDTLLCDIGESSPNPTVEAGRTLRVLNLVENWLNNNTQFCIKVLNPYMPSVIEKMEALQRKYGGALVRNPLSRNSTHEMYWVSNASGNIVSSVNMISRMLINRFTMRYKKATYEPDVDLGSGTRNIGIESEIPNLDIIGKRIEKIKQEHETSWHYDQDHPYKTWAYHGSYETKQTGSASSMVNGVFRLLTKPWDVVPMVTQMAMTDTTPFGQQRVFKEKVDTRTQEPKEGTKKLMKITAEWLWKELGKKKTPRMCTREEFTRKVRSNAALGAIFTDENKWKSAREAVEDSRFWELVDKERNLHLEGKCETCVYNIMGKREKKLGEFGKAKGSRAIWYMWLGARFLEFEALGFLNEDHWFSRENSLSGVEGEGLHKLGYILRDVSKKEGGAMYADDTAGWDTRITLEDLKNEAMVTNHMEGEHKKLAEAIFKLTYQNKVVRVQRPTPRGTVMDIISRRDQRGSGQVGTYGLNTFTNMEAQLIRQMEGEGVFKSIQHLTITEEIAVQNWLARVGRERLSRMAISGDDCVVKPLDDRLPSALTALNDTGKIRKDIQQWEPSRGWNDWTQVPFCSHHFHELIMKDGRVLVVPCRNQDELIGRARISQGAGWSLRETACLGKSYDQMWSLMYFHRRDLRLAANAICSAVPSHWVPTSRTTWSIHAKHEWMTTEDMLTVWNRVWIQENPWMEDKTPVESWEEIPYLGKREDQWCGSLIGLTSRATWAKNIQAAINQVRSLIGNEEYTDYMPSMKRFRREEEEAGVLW

[17] = HeLa cell cytotoxicity, dose response, cytotoxicity control for MgcRacGAP inhibitor project (AID 624300); type: functional
[18] = target: T3, Rac GTPase-activating protein 1 (Homo sapiens, UniProt Q9H0H5); assay: MgcRacGAP GTPase-activating activity inhibitors, confirmation, biochemical, ADP Hunter fluorescence, primary and confirmatory (AID 624330); type: functional
T3 sequence (Q9H0H5 whole entry): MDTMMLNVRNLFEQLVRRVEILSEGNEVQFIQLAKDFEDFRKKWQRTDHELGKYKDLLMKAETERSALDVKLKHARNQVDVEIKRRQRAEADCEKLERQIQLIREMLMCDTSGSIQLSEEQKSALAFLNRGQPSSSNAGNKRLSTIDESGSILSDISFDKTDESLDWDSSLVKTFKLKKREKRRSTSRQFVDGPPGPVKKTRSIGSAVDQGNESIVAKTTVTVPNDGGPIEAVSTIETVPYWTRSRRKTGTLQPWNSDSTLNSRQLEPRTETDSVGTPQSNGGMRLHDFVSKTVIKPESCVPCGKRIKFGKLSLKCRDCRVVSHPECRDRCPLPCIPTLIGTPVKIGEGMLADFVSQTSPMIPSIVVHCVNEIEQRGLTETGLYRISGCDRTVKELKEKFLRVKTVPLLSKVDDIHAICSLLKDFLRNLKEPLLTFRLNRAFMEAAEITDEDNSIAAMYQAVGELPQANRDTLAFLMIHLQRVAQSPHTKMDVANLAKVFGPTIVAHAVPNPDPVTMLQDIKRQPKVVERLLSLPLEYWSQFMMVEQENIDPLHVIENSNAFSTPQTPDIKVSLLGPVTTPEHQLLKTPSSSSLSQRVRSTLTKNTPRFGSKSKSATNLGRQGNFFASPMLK

[19] = T. cruzi growth inhibition in host cells, dose response, cell-based, plate reader, dry powder, set 2 (AID 652275); type: functional
[20] = NIH-3T3 fibroblast cytotoxicity, dose response, cytotoxicity control, cell-based, fluorescence, Alamar Blue, secondary assay (AID 2327); type: functional;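 also: NIH-3T3 mouse fibroblasts cultured with fluconazole at 8 µg/mL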
[21] = target: T4, Neuropeptide Y receptor type 1 (Homo sapiens, UniProt P25929); type: functional;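 also: HEK293 cells with a CNG channel challenged with NPY then isoproterenol; potency as antagonist that reverses NPY suppression of cAMP signal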
T4 sequence (P25929 whole entry): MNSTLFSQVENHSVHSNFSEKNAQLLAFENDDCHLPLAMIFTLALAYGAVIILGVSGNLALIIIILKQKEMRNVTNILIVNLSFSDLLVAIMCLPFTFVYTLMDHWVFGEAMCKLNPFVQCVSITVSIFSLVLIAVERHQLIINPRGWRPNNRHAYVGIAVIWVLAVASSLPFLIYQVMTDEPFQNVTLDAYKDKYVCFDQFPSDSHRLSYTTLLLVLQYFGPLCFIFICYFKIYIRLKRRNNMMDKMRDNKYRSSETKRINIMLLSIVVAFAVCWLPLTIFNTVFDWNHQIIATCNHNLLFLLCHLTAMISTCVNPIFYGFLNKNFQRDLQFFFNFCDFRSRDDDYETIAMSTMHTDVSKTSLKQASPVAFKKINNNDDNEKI

[22] = C. albicans growth with fluconazole, confirmation, fluorescence, retest (AID 2467); type: functional, cell-based
[23] = target: T5, Neuropeptide Y receptor type 2 (Homo sapiens, UniProt P49146); type: functional, cell-based;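 also: HEK293 cells expressing the receptor and a CNG channel; stimulus was NPY near EC95 followed by isoproterenol to raise cAMP; antagonist potency measured as restoring cAMP signal that NPY suppresses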
T5 sequence (P49146 whole entry): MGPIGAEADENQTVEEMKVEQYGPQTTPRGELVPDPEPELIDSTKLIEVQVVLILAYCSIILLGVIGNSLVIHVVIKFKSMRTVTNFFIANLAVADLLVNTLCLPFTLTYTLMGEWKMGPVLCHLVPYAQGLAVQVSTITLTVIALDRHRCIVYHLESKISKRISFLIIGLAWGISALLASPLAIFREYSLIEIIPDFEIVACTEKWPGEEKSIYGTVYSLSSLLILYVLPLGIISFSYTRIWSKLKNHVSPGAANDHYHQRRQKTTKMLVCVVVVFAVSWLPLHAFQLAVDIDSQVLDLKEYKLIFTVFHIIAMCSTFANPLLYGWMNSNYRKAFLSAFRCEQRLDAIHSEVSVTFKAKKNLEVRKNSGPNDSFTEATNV

[24] = target: Estrogen receptor beta (Homo sapiens, UniProt Q92731); assay: ERβ–SRC-3 coactivator interaction inhibitors, confirmation, orthogonal assay, biochemical, ELISA, streptavidin-HRP readout (AID 1060)
Sequence of Estrogen receptor beta (Q92731 whole entry): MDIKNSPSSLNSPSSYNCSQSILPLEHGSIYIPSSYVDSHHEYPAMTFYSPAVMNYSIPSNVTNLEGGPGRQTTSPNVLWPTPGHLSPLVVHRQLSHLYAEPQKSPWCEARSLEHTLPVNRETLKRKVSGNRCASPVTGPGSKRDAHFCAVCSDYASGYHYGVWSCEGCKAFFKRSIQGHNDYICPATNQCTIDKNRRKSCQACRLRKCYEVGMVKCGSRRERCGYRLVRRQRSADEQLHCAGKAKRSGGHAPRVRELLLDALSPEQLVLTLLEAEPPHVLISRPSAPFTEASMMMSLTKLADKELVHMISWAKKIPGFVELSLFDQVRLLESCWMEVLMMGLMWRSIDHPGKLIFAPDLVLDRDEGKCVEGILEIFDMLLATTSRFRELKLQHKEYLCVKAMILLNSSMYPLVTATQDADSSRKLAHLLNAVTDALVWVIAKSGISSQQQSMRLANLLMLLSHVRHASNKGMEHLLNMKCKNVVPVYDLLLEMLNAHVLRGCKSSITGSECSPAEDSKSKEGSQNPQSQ

[25] = HEp-2 cell cytotoxicity, dose response, cytotoxicity control for RSV inhibitor project, HTS (AID 2410); type: functional; conditions: human respiratory syncytial virus
[26] = cells
[27] = HeLa 2N DNA content increase, dose response, cell-based, IC50 (AID 1117349); type: functional
[28] = HeLa 4N DNA content increase, dose response, cell-based, IC50 (AID 1117351); type: functional
[29] = target: Beta-galactosidase (Escherichia coli, UniProt Q8VNN2); assay: PubChem AID 485352; type: functional
Sequence of Beta-galactosidase (Q8VNN2 whole entry): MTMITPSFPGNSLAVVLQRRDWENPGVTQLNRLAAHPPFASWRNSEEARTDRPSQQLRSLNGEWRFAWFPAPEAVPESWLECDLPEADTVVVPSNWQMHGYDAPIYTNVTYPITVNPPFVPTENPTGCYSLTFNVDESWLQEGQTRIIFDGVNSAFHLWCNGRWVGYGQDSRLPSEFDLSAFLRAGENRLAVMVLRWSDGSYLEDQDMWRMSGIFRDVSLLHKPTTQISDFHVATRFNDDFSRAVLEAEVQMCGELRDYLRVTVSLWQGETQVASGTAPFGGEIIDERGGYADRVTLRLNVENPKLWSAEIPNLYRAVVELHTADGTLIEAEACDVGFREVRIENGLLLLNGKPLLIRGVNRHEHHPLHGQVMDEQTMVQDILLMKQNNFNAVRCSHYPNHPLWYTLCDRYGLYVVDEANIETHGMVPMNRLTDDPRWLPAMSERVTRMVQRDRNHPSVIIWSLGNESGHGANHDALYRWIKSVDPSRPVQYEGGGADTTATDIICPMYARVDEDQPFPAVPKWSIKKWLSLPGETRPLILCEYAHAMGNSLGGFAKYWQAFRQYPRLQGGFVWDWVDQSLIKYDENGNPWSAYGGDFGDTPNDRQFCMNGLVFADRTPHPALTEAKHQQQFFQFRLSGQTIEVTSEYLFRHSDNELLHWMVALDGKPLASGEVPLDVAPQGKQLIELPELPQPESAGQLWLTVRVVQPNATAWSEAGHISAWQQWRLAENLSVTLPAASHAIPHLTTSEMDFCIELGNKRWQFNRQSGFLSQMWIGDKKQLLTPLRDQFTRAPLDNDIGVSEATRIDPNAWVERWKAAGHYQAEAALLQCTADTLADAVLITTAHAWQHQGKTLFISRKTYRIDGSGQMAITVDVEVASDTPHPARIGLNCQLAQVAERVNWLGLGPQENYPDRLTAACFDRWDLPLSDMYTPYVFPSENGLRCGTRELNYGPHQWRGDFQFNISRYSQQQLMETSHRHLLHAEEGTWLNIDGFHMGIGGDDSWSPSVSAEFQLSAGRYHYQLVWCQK

[30] = target: T6, Type-1 angiotensin II receptor (Homo sapiens, UniProt P30556); assay: AT1 receptor antagonists, dose response, selectivity assay for APJ receptor antagonist project, cell-based, uHTS hits (AID 463214); type: functional;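 also: antagonist potency against angiotensin II stimulated AT1 response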
T6 sequence (P30556 whole entry): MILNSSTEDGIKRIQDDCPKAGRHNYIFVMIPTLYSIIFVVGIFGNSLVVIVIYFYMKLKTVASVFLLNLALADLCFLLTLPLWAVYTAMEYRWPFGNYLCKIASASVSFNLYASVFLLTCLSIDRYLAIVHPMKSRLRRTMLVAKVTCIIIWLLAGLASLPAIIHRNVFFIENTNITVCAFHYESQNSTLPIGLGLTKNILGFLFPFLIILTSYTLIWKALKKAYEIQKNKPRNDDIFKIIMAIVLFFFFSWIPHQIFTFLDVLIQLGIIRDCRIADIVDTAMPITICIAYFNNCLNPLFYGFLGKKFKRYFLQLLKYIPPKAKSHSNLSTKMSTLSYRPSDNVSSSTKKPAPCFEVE

[31] = human group III sPLA2 inhibitors, dose response, biochemical, QFRET, IC50 (AID 743457);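 also: green fluorescence rise as the enzyme cleaves BODIPY PC-A2 in liposomes; potency for inhibition of the enzyme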

## C=CCN1C(=O)NC(=O)/C(=C(/CC)NCCN2CCOCC2)C1=O
[1]
  IC50: > 100 µM (active)

## C=CCn1c(SCC(=O)c2cc(C)n(C(C)COC)c2C)nc2sc(C)c(C)c2c1=O (centres undefined)
[2]
  IC50: > 66 µM (inactive)
[3]
  IC50: > 66 µM (inactive)
[1]
  IC50: > 100 µM (active)

## C=CCN1CC[C@]23CCCC[C@H]2[C@H]1Cc1ccc(O)cc13 [LEVALLORPHAN]
[4]
  IC50: > 20 µM (inactive)
[5]
  IC50: > 20 µM (inactive)
[6]
  IC50: > 20 µM (inactive)
[7]
  IC50: > 20 µM (inactive)
[8]
  IC50: > 20 µM (inactive)
[9]
  IC50: > 20 µM (inactive)
[10]
  IC50: > 20 µM (inactive)
[11]
  IC50: > 20 µM (inactive)

## O=C1NC(=O)N(Cc2ccco2)C(=O)/C1=C/NNC(=O)c1ccccc1
[12]
  IC50: > 94.2 µM (inactive)

## C[C@@H]1CCCCO[C@@H](CN(C)C(=O)Nc2cccc3ccccc23)[C@H](C)CN([C@H](C)CO)C(=O)c2cc(NS(=O)(=O)c3ccccc3)ccc2O1
[13]
  AC50: 3.66 µM (active)
[14]
  AC50: > 70 µM (inactive)

## CC1=NN(c2ccc(Cl)c(C(=O)O)c2)C(=O)/C1=C/c1ccc(-c2ccccc2[N+](=O)[O-])o1
[15]
  IC50: 15.7 µM (active)
[16]
  IC50: 9.5 µM (active)
[17]
  CC50: 100 µM (active)
[18]
  IC50: 28.7 µM (active)

## O=C(Cc1ccccn1)N1CCCCN2[C@@H](CO)[C@H](c3ccc(-c4ccc(F)cc4)cc3)[C@@H]2C1
[19]
  AC50: 1.43 µM (active)

## Cc1onc(-c2ccccc2Cl)c1C(=O)Nc1sc2c(c1C#N)CCC2
[20]
  EC50: > 160 µM (inactive)
[21]
  IC50: 7.12 µM (active)
[22]
  EC50: 1.59 µM (active)
[23]
  IC50: 5.86 µM (active)

## N#Cc1ccc(N2CCN(C(=O)CCCCCn3c(=S)[nH]c4ccccc4c3=O)CC2)cc1
[24]
  IC50: 10.5 µM (not active)

## COc1ccc(-c2cc(C(=O)N3CCCCCC3)c3ccccc3n2)c(OC)c1
[25]
  CC50: 40.8 µM (active)
[26]
  IC50: 28 µM (active)

## O=C(Nc1ccc(Br)cc1)c1cc(Br)cc(Br)c1O [TRIBROMSALAN]
[27]
  IC50: > 10 µM (inactive)
[4]
  IC50: 0.001 µM (active)
[5]
  IC50: 0.003 µM (active)
[6]
  IC50: 0.003 µM (active)
[7]
  IC50: 0.001 µM (active)
[8]
  IC50: 0.003 µM (active)
[28]
  IC50: > 10 µM (inactive)
[9]
  IC50: 0.001 µM (active)
[10]
  IC50: 0.001 µM (active)
[11]
  IC50: 0.001 µM (active)

## Cc1ccc(S(=O)(=O)C(c2ccccc2)c2c(C)noc2C)cc1 (centres undefined)
[21]
  IC50: > 35 µM (not active)
[23]
  IC50: 3.92 µM (active)

## CC(C)(C)[S@@+]([O-])N1Cc2cc(C(=O)NCc3ccc4c(c3)OCO4)nc(-c3cccc(-c4ccccc4)c3)c2[C@H]1CCO
[19]
  AC50: 0.309 µM (active)

## CCN=C(S)NNc1nnc(-c2ccccc2)c(-c2ccccc2)n1
[29]
  EC50: > 40 µM (inactive)
[30]
  IC50: > 40 µM (not active)
[31]
  IC50: > 122 µM (inactive)

## Cc1n[nH]c(S/C(=C/c2ccc(OCc3ccc(C(=O)O)cc3)cc2)C(=O)O)n1
[12]
  IC50: > 94.1 µM (inactive)

## COC(=O)Nc1nc2cc([S+]([O-])c3ccccc3)ccc2[nH]1 (centres undefined) [OXFENDAZOLE]
[27]
  IC50: 0.326 µM (active)
[4]
  IC50: > 20 µM (inactive)
[5]
  IC50: 0.001 µM (active)
[6]
  IC50: 0.001 µM (active)
[28]
  IC50: 0.331 µM (active)
[9]
  IC50: > 20 µM (inactive)
[10]
  IC50: > 20 µM (inactive)
[11]
  IC50: 0.001 µM (active)

## CCC(NCCC(c1ccccc1)c1ccccc1)=C1C(=O)N(C)C(=O)N(C)C1=O
[21]
  IC50: 5.26 µM (active)
[23]
  IC50: 5.26 µM (active)

## O=C1C(=O)N(Cc2ccc(-c3ccsc3)cc2)c2ccc(OC(F)(F)F)cc21
[31]
  IC50: 25.5 µM (inactive)

## Cc1cc(C(=O)NNC(S)=NC(C)c2ccccc2)c2ccccc2n1 (centres undefined)
[20]
  EC50: > 150 µM (inactive)
[22]
  EC50: > 38 µM (not active)
[31]
  IC50: > 122 µM (inactive)

## CCOP(=S)(OCC)SCSc1ccc(Cl)cc1 [CARBOFENOTION]
[4]
  IC50: > 20 µM (inactive)
[5]
  IC50: > 20 µM (inactive)
[7]
  IC50: > 20 µM (inactive)
[8]
  IC50: > 20 µM (inactive)
[10]
  IC50: > 20 µM (inactive)
[11]
  IC50: > 20 µM (inactive)
